Test results as given in US20240016781A1, “TREATMENT OF KRAS MUTANT CANCERS” (MEI Pharma, Inc., priority 2020, published 2024).
Where “and” joins values, the source holds several entries; their conditions need not be identical. Equal values may be shown once. Read-outs that look alike come from different tables or passages of the source.

Tests used:
Test in all cases: 72-hour CellTiter-Glo 2.0 growth inhibition screen (single agent, 9x9 combination dose matrix);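 as to Best CI Level: inhibition effect level at which the best CI was calculated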
Type in all cases: cell-based
HCC1171 = system: HCC1171;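 as to Best CI Level: inhibition effect level at which the best CI was calculated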
HCC44 = system: HCC44;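 as to Best CI Level: inhibition effect level at which the best CI was calculated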
SW48 KRAS (G12C/+) = system: SW48 KRAS (G12C/+);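 as to Best CI Level: inhibition effect level at which the best CI was calculated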
LS-513 = system: LS-513;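 as to Best CI Level: inhibition effect level at which the best CI was calculated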
HPAF-II = system: HPAF-II;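 as to Best CI Level: inhibition effect level at which the best CI was calculated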
[1] = HCC1171 (KRAS G12C), enhancer + MEI-522 (Voruciclib), 72 h;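 as to Best CI Level: inhibition effect level at which the best CI was calculated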
[2] = HCC1171, Lung, Additional Single Agent Responses (inhibition, % I), 72 h
[3] = HCC1171, Lung, growth inhibition (GI) curve, single agent, 72 h
[4] = HCC1171, Lung, growth inhibition (GI), AUC, single agent, 72 h
[5] = enhancer combined with MEI-522 (Voruciclib), HCC1171 (Lung), 72 hours, inhibition data
[6] = HCC44 (KRAS G12C), enhancer + MEI-522 (Voruciclib), 72 h;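 as to Best CI Level: inhibition effect level at which the best CI was calculated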
[7] = HCC44, Lung, Additional Single Agent Responses (inhibition, % I), 72 h
[8] = HCC44, Lung, growth inhibition (GI), AUC, single agent, 72 h
[9] = enhancer combined with MEI-522 (Voruciclib), HCC44 (Lung), 72 hours, inhibition data
[10] = SW48 KRAS (G12C/+), Colorectal, Additional Single Agent Responses (inhibition, % I), 72 h
[11] = SW48 KRAS (G12C/+), Colorectal, growth inhibition (GI), AUC, single agent, 72 h
[12] = SW48 KRAS (G12C/+), enhancer + MEI-522 (Voruciclib), 72 h
[13] = enhancer combined with MEI-522 (Voruciclib), SW48 KRAS (G12C/+) (Colorectal), 72 hours, inhibition data
[14] = LS-513 (KRAS G12D), enhancer + MEI-522 (Voruciclib), 72 h;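 as to Best CI Level: inhibition effect level at which the best CI was calculated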
[15] = LS-513, Colorectal, Additional Single Agent Responses (inhibition, % I), 72 h
[16] = LS-513, Colorectal, growth inhibition (GI), AUC, single agent, 72 h
[17] = enhancer combined with MEI-522 (Voruciclib), LS-513 (Colorectal), 72 hours, inhibition data
[18] = HPAF-II (KRAS G12D), enhancer + MEI-522 (Voruciclib), 72 h;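 as to Best CI Level: inhibition effect level at which the best CI was calculated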
[19] = HPAF-II, Pancreas, Additional Single Agent Responses (inhibition, % I), 72 h
[20] = HPAF-II, Pancreas, growth inhibition (GI), AUC, single agent, 72 h
[21] = enhancer combined with MEI-522 (Voruciclib), HPAF-II (Pancreas), 72 hours, inhibition data
[22] = HCC44, Lung, growth inhibition (GI) curve, single agent, 72 h
[23] = LS-513, Colorectal, growth inhibition (GI) curve, single agent, 72 h
[24] = HPAF-II, Pancreas, growth inhibition (GI) curve, single agent, 72 h

C=CC(=O)N1CCN(c2nc(=O)n(-c3c(C)ccnc3C(C)C)c3nc(-c4c(O)cccc4F)c(F)cc23)[C@@H](C)C1 [AMG510]
Best CI (HCC1171; [1]): 0.26
Bliss Volume (HCC1171; [1]): 3.26
HSA volume (HCC1171; [1]): 4.61
Loewe Volume (HCC1171; [1]): 6.02
Synergy Score (HCC1171; [1]): 7.42
EC50 (HCC1171; [2]): 2.8 nM
Response Area (HCC1171; [2]): 1.99
Emax (HCC1171; HCC1171, Lung, Additional Single Agent Responses, 72 h, read-out: Max Response (% I)): 48%
GI50 (HCC1171; [3]): 5.5 nM
Response Area (HCC1171; [4]): 3.50
Emax (HCC1171; HCC1171, Lung, growth inhibition (GI), single agent, 72 h, read-out: Max Response (% GI)): 85%
Best CI (HCC1171; [5]): 0.22
Bliss Volume (HCC1171; [5]): −0.99
HSA volume (HCC1171; [5]): 2.26
Loewe Volume (HCC1171; [5]): 3.06
Synergy Score (HCC1171; [5]): 2.15
Best CI Level (HCC1171; enhancer combined with MEI-522 (Voruciclib), HCC1171 (Lung), 72 hours, inhibition data, unit assumed): 50%
Best CI (HCC44; [6]): 0.63
Bliss Volume (HCC44; [6]): 2.46
HSA volume (HCC44; [6]): 2.64
Loewe Volume (HCC44; [6]): 2.30
Synergy Score (HCC44; [6]): 4.36
Response Area (HCC44; [7]): 1.52
Response Area (HCC44; [8]): 1.97
EC50 (HCC44; Homo sapiens, HCC44, 72 h, HCC44, Lung, Additional Single Agent Responses (inhibition, % I), 72 h): 4.1 nM
EC50 (HCC44; Homo sapiens, HCC44, 72 h, HCC44, Lung, growth inhibition (GI) curve, single agent, 72 h): 4.6 nM
Emax (HCC44; Homo sapiens, HCC44, Lung, Additional Single Agent Responses, 72 h, read-out: Max Response (% I)): 32%
Emax (HCC44; Homo sapiens, HCC44, Lung, growth inhibition (GI), single agent, 72 h, read-out: Max Response (% GI)): 41%
Best CI (HCC44; [9]): 0.67
Bliss Volume (HCC44; [9]): −0.82
HSA volume (HCC44; [9]): 1.08
Loewe Volume (HCC44; [9]): 0.97
Synergy Score (HCC44; [9]): 1.16
Best CI Level (HCC44; enhancer combined with MEI-522 (Voruciclib), HCC44 (Lung), 72 hours, inhibition data, unit assumed): 45%
HSA volume (SW48 KRAS (G12C/+)): 5.42 and 3.57
Loewe Volume (SW48 KRAS (G12C/+)): 4.73
EC50 (SW48 KRAS (G12C/+); Homo sapiens, SW48, 72 h): 2.1 nM
Emax (SW48 KRAS (G12C/+); Homo sapiens, SW48, 72 h, read-out: Max Response (% GI)): 36%
Emax (SW48 KRAS (G12C/+); Homo sapiens, SW48, 72 h, read-out: Max Response (% I)): 29%
Response Area (SW48 KRAS (G12C/+); [10]): 1.47
Response Area (SW48 KRAS (G12C/+); [11]): 1.78
Best CI (SW48 KRAS (G12C/+); [12]): 0.36
Synergy Score (SW48 KRAS (G12C/+); [12]): 5.97
Best CI (SW48 KRAS (G12C/+); [13]): 0.62
Best CI Level (SW48 KRAS (G12C/+); [13]): 60
EC50 (LS-513; Homo sapiens, LS-513, 72 h, LS-513, Colorectal, Additional Single Agent Responses (inhibition, % I), 72 h): 321 nM
EC50 (LS-513; Homo sapiens, LS-513, 72 h, LS-513, Colorectal, growth inhibition (GI) curve, single agent, 72 h): 320 nM
Emax (LS-513; Homo sapiens, LS-513, Colorectal, Additional Single Agent Responses, 72 h, read-out: Max Response (% I)): 3%
Emax (LS-513; Homo sapiens, LS-513, Colorectal, growth inhibition (GI), single agent, 72 h, read-out: Max Response (% GI)): 4%
Best CI (LS-513; [14]): 0.70
Bliss Volume (LS-513; [14]): 0.20
HSA volume (LS-513; [14]): −2.06
Loewe Volume (LS-513; [14]): −0.76
Synergy Score (LS-513; [14]): 1.51
Response Area (LS-513; [15]): −0.19
Response Area (LS-513; [16]): −0.23
Best CI (LS-513; [17]): 0.82
Best CI Level (LS-513; [17]): 20
Bliss Volume (LS-513; [17]): −0.02
HSA volume (LS-513; [17]): −1.47
Loewe Volume (LS-513; [17]): −0.89
Synergy Score (LS-513; [17]): 0.37
Best CI (HPAF-II; [18]): 0.06
Bliss Volume (HPAF-II; [18]): −3.31
HSA volume (HPAF-II; [18]): −4.44
Loewe Volume (HPAF-II; [18]): −3.46
Synergy Score (HPAF-II; [18]): 0.12
Response Area (HPAF-II; [19]): 0.32
Response Area (HPAF-II; [20]): 0.47
EC50 (HPAF-II; Homo sapiens, HPAF-II, 72 h, Pancreas, Additional Single Agent Responses (inhibition, % I)): 2400 nM
EC50 (HPAF-II; Homo sapiens, HPAF-II, 72 h, Pancreas, growth inhibition (GI) curve, single agent): 2540 nM
Emax (HPAF-II; Homo sapiens, HPAF-II, Pancreas, Additional Single Agent Responses, 72 h, read-out: Max Response (% I)): 11%
Emax (HPAF-II; Homo sapiens, HPAF-II, Pancreas, growth inhibition (GI), single agent, 72 h, read-out: Max Response (% GI)): 15%
Best CI (HPAF-II; [21]): 1.03
Bliss Volume (HPAF-II; [21]): −2.30
HSA volume (HPAF-II; [21]): −3.13
Loewe Volume (HPAF-II; [21]): −2.28
Synergy Score (HPAF-II; [21]): 0.09
Best CI Level (HPAF-II; enhancer combined with MEI-522 (Voruciclib), HPAF-II (Pancreas), 72 hours, inhibition data, unit assumed): 20%

CN1CC[C@@H](c2c(O)cc(O)c3c(=O)cc(-c4ccc(C(F)(F)F)cc4Cl)oc23)[C@@H]1CO [MEI-522(Voruciclib)]
EC50 (HCC1171; [2]): 680 nM
IC50 (HCC1171; [2]): 3030 nM
Response Area (HCC1171; [2]): 1.62
Max Response (% I) (HCC1171; HCC1171, Lung, Additional Single Agent Responses, 72 h): 51 % I
EC50 (HCC1171; [3]): 674 nM
GI50 (HCC1171; [3]): 734 nM
Response Area (HCC1171; [4]): 2.84
Max Response (% GI) (HCC1171; HCC1171, Lung, growth inhibition (GI), single agent, 72 h): 89 % GI
EC50 (HCC44; [7]): 770 nM
IC50 (HCC44; [7]): 829 nM
Response Area (HCC44; [7]): 2.85
Max Response (% I) (HCC44; HCC44, Lung, Additional Single Agent Responses, 72 h): 91 % I
EC50 (HCC44; [22]): 1210 nM
GI50 (HCC44; [22]): 730 nM
Response Area (HCC44; [8]): 4.97
Max Response (% GI) (HCC44; HCC44, Lung, growth inhibition (GI), single agent, 72 h): 161 % GI
IC50 (SW48 KRAS (G12C/+); [10]): 731 nM
Response Area (SW48 KRAS (G12C/+); [10]): 2.74
EC50 (SW48 KRAS (G12C/+); SW48 KRAS (G12C/+), Colorectal, Additional Single Agent Responses (inhibition, % I), 72 h, read-out: EC50): 591 nM
Max Response (% I) (SW48 KRAS (G12C/+); SW48 KRAS (G12C/+), Colorectal, Additional Single Agent Responses, 72 h): 85 % I
GI50 (SW48 KRAS (G12C/+); SW48 KRAS (G12C/+), Colorectal, growth inhibition (GI) curve, single agent, 72 h): 586 nM
EC50 (SW48 KRAS (G12C/+); SW48 KRAS (G12C/+), Colorectal, growth inhibition (GI) curve, single agent, 72 h, read-out: EC50): 719 nM
Response Area (SW48 KRAS (G12C/+); [11]): 3.67
Max Response (% GI) (SW48 KRAS (G12C/+); SW48 KRAS (G12C/+), Colorectal, growth inhibition (GI), single agent, 72 h): 115 % GI
EC50 (LS-513; [15]): 549 nM
IC50 (LS-513; [15]): 633 nM
Response Area (LS-513; [15]): 2.94
Max Response (% I) (LS-513; LS-513, Colorectal, Additional Single Agent Responses, 72 h): 90 % I
EC50 (LS-513; [23]): 878 nM
GI50 (LS-513; [23]): 529 nM
Response Area (LS-513; [16]): 4.51
Max Response (% GI) (LS-513; LS-513, Colorectal, growth inhibition (GI), single agent, 72 h): 147 % GI
EC50 (HPAF-II; [19]): 1310 nM
IC50 (HPAF-II; [19]): 1880 nM
Response Area (HPAF-II; [19]): 2.09
Max Response (% I) (HPAF-II; HPAF-II, Pancreas, Additional Single Agent Responses, 72 h): 72 % I
EC50 (HPAF-II; [24]): 1330 nM
GI50 (HPAF-II; [24]): 1340 nM
Response Area (HPAF-II; [20]): 2.84
Max Response (% GI) (HPAF-II; HPAF-II, Pancreas, growth inhibition (GI), single agent, 72 h): 97 % GI
